Here are results for 10 compounds from patent publication US20050008896A1, “Luminous organic compound and manufacturing method” (Orient Chemical Ind., Ltd., priority 2003, published 2005).

Where two headings read alike, the source gives them in different places.

For data set [1] the following is noted: stood at room temperature overnight.
Experimental: A method of measurement of the solubility is as follows. After the prescribed amount of the compound was added to each solvent, it was heated by water bath and irradiated supersonic wave for 1 hour. It was stood at room temperature overnight, and filtrated. Obtained residue was dried. Amount of insoluble residue was weighed, and solubility (w/v %) was determined.
Data set [2] in a line: Fluorescence (photoluminescence) intensity in ethanol, fluorescence spectrophotometer RF-5300PC. It counts as physicochemical. The note with it: for Fluorescence Intensity / center of Luminous Wave: 25 mg of compound in 100 ml of ethanol; for Relative Value of Fluorescence Intensity, Relative Value (2) (Related to Metal Complex Intermediate 3): metal complex intermediate 3 regarded as 1.00. The protocol: Fluorescence intensity of each obtained compound was measured in order to evaluate fluorescence property.
A method of the evaluation is as follows. 25 mg of each compound was dissolved in 100 ml of ethanol respectively. The fluorescence intensity, photoluminescence intensity, was measured by a fluorescence spectrophotometer RF-5300PC that is available from Shimadzu Corporation. The measured results of the luminous organic compounds 1 to 9 and 11, the comparative compounds 1 to 3 and the metal complex intermediate 1 to 3 are indicated in Table 3. […] The relative value (2) of the fluorescence intensity indicates the value related to the fluorescence intensity of the metal complex intermediate 3 regarded as 1.00.

The mark [3] stands for this setting: comparative compound 3 regarded as 1.00.

As to `C[N+](C)(C)CC[N+](C)(C)C.O=C(C=C([O-])C(F)(F)F)c1ccc2ccccc2c1.O=C(C=C([O-])C(F)(F)F)c1ccc2ccccc2c1.O=C(C=C([O-])C(F)(F)F)c1ccc2ccccc2c1.O=C(C=C([O-])C(F)(F)F)c1ccc2ccccc2c1.O=C(C=C([O-])C(F)(F)F)c1ccc2ccccc2c1.O=C(C=C([O-])C(F)(F)F)c1ccc2ccccc2c1.O=C(C=C([O-])C(F)(F)F)c1ccc2ccccc2c1.O=C(C=C([O-])C(F)(F)F)c1ccc2ccccc2c1.[Eu+3].[Eu+3]` [Luminous Organic Compound 1], in data set [1], the “Solubility, Ethanol” value is 0.20 w/v %; the “Solubility, Ethyl Acetate” value was “over 10.0 w/v %”; the “Solubility, Methyl Ethyl Ketone” value is “over 10.0 w/v %”; the “Solubility, Toluene” value is 0.52 w/v %. Moreover, the “Solubility, Xylene” value in data set [1] was 0.10 w/v %. In addition, in data set [2], the “Relative Value of Fluorescence Intensity, Relative Value (1) (Related to Comparative Compound 3)” value is on record as 1.31; the “Fluorescence Intensity” value is listed as 662; the “center of Luminous Wave” value is recorded as “(613 nm)”; the “Relative Value of Fluorescence Intensity, Relative Value (2) (Related to Metal Complex Intermediate 3)” value is 1.34.

For `C[N+](C)(C)CCCC[N+](C)(C)C.O=C(C=C([O-])C(F)(F)F)c1ccc2ccccc2c1.O=C(C=C([O-])C(F)(F)F)c1ccc2ccccc2c1.O=C(C=C([O-])C(F)(F)F)c1ccc2ccccc2c1.O=C(C=C([O-])C(F)(F)F)c1ccc2ccccc2c1.O=C(C=C([O-])C(F)(F)F)c1ccc2ccccc2c1.O=C(C=C([O-])C(F)(F)F)c1ccc2ccccc2c1.O=C(C=C([O-])C(F)(F)F)c1ccc2ccccc2c1.O=C(C=C([O-])C(F)(F)F)c1ccc2ccccc2c1.[Eu+3].[Eu+3]` [Luminous Organic Compound 2], in data set [1], the “Solubility, Ethanol” value stood at 0.19 w/v %; the “Solubility, Ethyl Acetate” value came out at 1.54 w/v %; the “Solubility, Methyl Ethyl Ketone” value is “over 10.0 w/v %”; the “Solubility, Toluene” value came out at 0.24 w/v %. Further, in data set [1], the “Solubility, Xylene” value worked out at 0.10 w/v %. In data set [2], the “Relative Value of Fluorescence Intensity, Relative Value (1) (Related to Comparative Compound 3)” value worked out at 1.48; the “Fluorescence Intensity” value is 744; the “center of Luminous Wave” value was “(613 nm)”; the “Relative Value of Fluorescence Intensity, Relative Value (2) (Related to Metal Complex Intermediate 3)” value worked out at 1.50.

Consider `C[N+](C)(C)CCCCCC[N+](C)(C)C.O=C(C=C([O-])C(F)(F)F)c1ccc2ccccc2c1.O=C(C=C([O-])C(F)(F)F)c1ccc2ccccc2c1.O=C(C=C([O-])C(F)(F)F)c1ccc2ccccc2c1.O=C(C=C([O-])C(F)(F)F)c1ccc2ccccc2c1.O=C(C=C([O-])C(F)(F)F)c1ccc2ccccc2c1.O=C(C=C([O-])C(F)(F)F)c1ccc2ccccc2c1.O=C(C=C([O-])C(F)(F)F)c1ccc2ccccc2c1.O=C(C=C([O-])C(F)(F)F)c1ccc2ccccc2c1.[Eu+3].[Eu+3]` [Luminous Organic Compound 3], for which, in data set [1], the “Solubility, Ethanol” value is 0.14 w/v %; the “Solubility, Ethyl Acetate” value stood at 9.01 w/v %; the “Solubility, Methyl Ethyl Ketone” value was “over 10.0 w/v %”; the “Solubility, Toluene” value amounted to 0.31 w/v %. For the same compound, the “Solubility, Xylene” value in data set [1] came out at 0.18 w/v %. For the same compound, in data set [2], the “Relative Value of Fluorescence Intensity, Relative Value (1) (Related to Comparative Compound 3)” value came to 1.63; the “Fluorescence Intensity” value is 822; the “center of Luminous Wave” value is given as “(613 nm)”; the “Relative Value of Fluorescence Intensity, Relative Value (2) (Related to Metal Complex Intermediate 3)” value was 1.66.

On to `C[N+](C)(C)c1ccc([N+](C)(C)C)cc1.O=C(C=C([O-])C(F)(F)F)c1ccc2ccccc2c1.O=C(C=C([O-])C(F)(F)F)c1ccc2ccccc2c1.O=C(C=C([O-])C(F)(F)F)c1ccc2ccccc2c1.O=C(C=C([O-])C(F)(F)F)c1ccc2ccccc2c1.O=C(C=C([O-])C(F)(F)F)c1ccc2ccccc2c1.O=C(C=C([O-])C(F)(F)F)c1ccc2ccccc2c1.O=C(C=C([O-])C(F)(F)F)c1ccc2ccccc2c1.O=C(C=C([O-])C(F)(F)F)c1ccc2ccccc2c1.[Eu+3].[Eu+3]` [Luminous Organic Compound 4], for which, in data set [1], the “Solubility, Ethanol” value turned out to be 0.08 w/v %; the “Solubility, Ethyl Acetate” value was “over 10.0 w/v %”; the “Solubility, Methyl Ethyl Ketone” value is reported as “over 10.0 w/v %”; the “Solubility, Toluene” value amounted to 0.23 w/v %. Further, the “Solubility, Xylene” value in data set [1] turned out to be 0.22 w/v %. Besides, in data set [2], the “Relative Value of Fluorescence Intensity, Relative Value (1) (Related to Comparative Compound 3)” value is 1.52; the “Fluorescence Intensity” value is 766; the “center of Luminous Wave” value is recorded as “(613 nm)”; the “Relative Value of Fluorescence Intensity, Relative Value (2) (Related to Metal Complex Intermediate 3)” value is reported as 1.55.

For `C[N+](C)(C)c1ccc(-c2ccc([N+](C)(C)C)cc2)cc1.O=C(C=C([O-])C(F)(F)F)c1ccc2ccccc2c1.O=C(C=C([O-])C(F)(F)F)c1ccc2ccccc2c1.O=C(C=C([O-])C(F)(F)F)c1ccc2ccccc2c1.O=C(C=C([O-])C(F)(F)F)c1ccc2ccccc2c1.O=C(C=C([O-])C(F)(F)F)c1ccc2ccccc2c1.O=C(C=C([O-])C(F)(F)F)c1ccc2ccccc2c1.O=C(C=C([O-])C(F)(F)F)c1ccc2ccccc2c1.O=C(C=C([O-])C(F)(F)F)c1ccc2ccccc2c1.[Eu+3].[Eu+3]` [Luminous Organic Compound 5], in data set [1], the “Solubility, Ethanol” value was 0.37 w/v %; the “Solubility, Ethyl Acetate” value is listed as 3.46 w/v %; the “Solubility, Methyl Ethyl Ketone” value is given as “over 10.0 w/v %”; the “Solubility, Toluene” value is reported as 0.30 w/v %. Also, the “Solubility, Xylene” value in data set [1] came to 0.52 w/v %. Further, in data set [2], the “Relative Value of Fluorescence Intensity, Relative Value (1) (Related to Comparative Compound 3)” value stood at 1.28; the “Fluorescence Intensity” value is reported as 644; the “Relative Value of Fluorescence Intensity, Relative Value (2) (Related to Metal Complex Intermediate 3)” value worked out at 1.30.

In the case of `CCCC[N+](C)(C)CCCC[N+](C)(C)CCCC.O=C(C=C([O-])C(F)(F)F)c1ccc2ccccc2c1.O=C(C=C([O-])C(F)(F)F)c1ccc2ccccc2c1.O=C(C=C([O-])C(F)(F)F)c1ccc2ccccc2c1.O=C(C=C([O-])C(F)(F)F)c1ccc2ccccc2c1.O=C(C=C([O-])C(F)(F)F)c1ccc2ccccc2c1.O=C(C=C([O-])C(F)(F)F)c1ccc2ccccc2c1.O=C(C=C([O-])C(F)(F)F)c1ccc2ccccc2c1.O=C(C=C([O-])C(F)(F)F)c1ccc2ccccc2c1.[Eu+3].[Eu+3]` [Luminous Organic Compound 6], in data set [1], the “Solubility, Ethanol” value was 0.14 w/v %; the “Solubility, Ethyl Acetate” value is listed as “over 10.0 w/v %”; the “Solubility, Methyl Ethyl Ketone” value is listed as “over 10.0 w/v %”; the “Solubility, Toluene” value worked out at 3.86 w/v %. For the same compound, the “Solubility, Xylene” value in data set [1] is 3.22 w/v %. For the same compound, in data set [2], the “Relative Value of Fluorescence Intensity, Relative Value (1) (Related to Comparative Compound 3)” value was determined as 1.51; the “Fluorescence Intensity” value stood at 758; the “center of Luminous Wave” value is listed as “(613 nm)”; the “Relative Value of Fluorescence Intensity, Relative Value (2) (Related to Metal Complex Intermediate 3)” value is on record as 1.53.

For `C[N+](C)(C)CCCC[N+](C)(C)C.O=C(C=C([O-])C(F)(F)F)c1ccc2ccccc2c1.O=C(C=C([O-])C(F)(F)F)c1ccc2ccccc2c1.O=C(C=C([O-])C(F)(F)F)c1ccc2ccccc2c1.O=C(C=C([O-])C(F)(F)F)c1ccc2ccccc2c1.O=C(C=C([O-])C(F)(F)F)c1ccc2ccccc2c1.O=C(C=C([O-])C(F)(F)F)c1ccc2ccccc2c1.O=C(C=C([O-])C(F)(F)F)c1ccc2ccccc2c1.O=C(C=C([O-])C(F)(F)F)c1ccc2ccccc2c1.[Tb+3].[Tb+3]` [Luminous Organic Compound 10], in data set [1], the “Solubility, Ethanol” value came out at 0.062 w/v %; the “Solubility, Ethyl Acetate” value was 1.21 w/v %; the “Solubility, Methyl Ethyl Ketone” value is listed as “over 10.0 w/v %”; the “Solubility, Toluene” value stood at 0.43 w/v %. In addition, the “Solubility, Xylene” value in data set [1] is 0.32 w/v %.

`O=C(C=C([O-])C(F)(F)F)c1ccc2ccccc2c1.O=C(C=C([O-])C(F)(F)F)c1ccc2ccccc2c1.O=C(C=C([O-])C(F)(F)F)c1ccc2ccccc2c1.[Eu+3]` [Metal Complex Intermediate 1]: in data set [2], the “Fluorescence Intensity” value worked out at 665; the “center of Luminous Wave” value was “(613 nm)”; the “Relative Value of Fluorescence Intensity, Relative Value (2) (Related to Metal Complex Intermediate 3)” value amounted to 1.35. Besides, the “Relative Value of Fluorescence Intensity, Relative Value (1) (Related to Comparative Compound 3)” value in data set [2] (setting [3]) amounted to 1.32.

Turning to `O=C(C=C([O-])C(F)(F)F)c1cccs1.O=C(C=C([O-])C(F)(F)F)c1cccs1.O=C(C=C([O-])C(F)(F)F)c1cccs1.[Eu+3]` [Metal Complex Intermediate 2], in data set [2], the “Fluorescence Intensity” value was 566; the “center of Luminous Wave” value was “(613 nm)”; the “Relative Value of Fluorescence Intensity, Relative Value (2) (Related to Metal Complex Intermediate 3)” value is recorded as 1.15. Moreover, in data set [2] (setting [3]), the “Relative Value of Fluorescence Intensity, Relative Value (1) (Related to Comparative Compound 3)” value was determined as 1.13.

As for `O=C(C=C([O-])C(F)(F)F)c1ccccc1.O=C(C=C([O-])C(F)(F)F)c1ccccc1.O=C(C=C([O-])C(F)(F)F)c1ccccc1.[Eu+3]` [Metal Complex Intermediate 3], in data set [2], the “Fluorescence Intensity” value came to 493; the “center of Luminous Wave” value is reported as “(613 nm)”; the “Relative Value of Fluorescence Intensity, Relative Value (2) (Related to Metal Complex Intermediate 3)” value is “(1.00)”. Moreover, the “Relative Value of Fluorescence Intensity, Relative Value (1) (Related to Comparative Compound 3)” value in data set [2] (setting [3]) stood at 0.98.
